Data: US20210231673A1, “METHODS AND COMPOSITIONS FOR DETECTION AND QUANTIFICATION OF SMALL MOLECULES AND OTHER ANALYTES” (President and Fellows of Harvard College, priority 2018, published 2021)

Key:
Assay type in all cases: binding
[1] = system: anti-PGE2 antibody; assay: Two-plex single molecule array assay for PGE2 and cortisol: PGE2; conditions: simultaneous detection of cortisol and PGE2
Method: (§1) Carboxylated 2.7 μm paramagnetic beads (˜4×10^8), non-encoded for single-plex assays and dye-encoded (488 nm and 647 nm) for multiplex assays, were washed three times with 600 μL of bead wash buffer (0.1% TWEEN® 20 in 1× PBS, pH 7.4) and twice with 400 μL of MES buffer (50 mM MES, pH 6.2). 1 mg/mL EDC in MES buffer was freshly prepared and 200 μL was added to the beads and mixed well. The beads were activated on a shaker for 30 min. After activation, the beads were washed once with 200 μL of MES buffer. 200 μL of 10 mg/mL BSA or BSA-cortisol conjugate in MES buffer were added to the activated beads. The beads were incubated at room temperature with shaking for 2 h, and then washed three times with bead wash buffer. […] The beads were counted using a Beckman-Coulter MULTISIZER™.
(§2) A two-step assay configuration was chosen when hapten-BSA-coated beads were used. […] Images of the arrays were analyzed and AEB (average enzyme per bead) values were calculated by the software in the SIMOA HD-1 ANALYZER™.
(§3) Standard curves were obtained by plotting the signal responses (AEB and OD) against the logarithm of analyte concentrations using Origin software (Origin 9.5). […] The limit of detection (LOD) was calculated as three standard deviations (SDs) above the background. […]

[2] = system: anti-PGE2 antibody; assay: Single-plex competitive single molecule array assay for PGE2 (BSA-PGE2 beads)
Method: as §1, §2, §3

[3] = system: anti-cortisol antibody (XM210); assay: Multiplex single molecule array assay for IL-6 and cortisol: cortisol (competitive); conditions: simultaneous detection of IL-6 and cortisol
Method: A two-step assay configuration was used for simultaneous detection of IL-6 and cortisol. BSA-cortisol coated beads were mixed with anti-IL6 capture beads (1:1 in number). The mixed beads were diluted to a concentration of 10,000 beads/μL. A mixture of detection antibodies, 10 pM for anti-cortisol antibody (XM210) and 1 nM for anti-IL6 detector, was prepared in Detector Diluent. A mixture of cortisol and IL-6 standards was serially diluted to desired concentrations. All the other conditions were the same as the single-plex assay.
Standard curves were obtained by plotting the signal responses (AEB and OD) against the logarithm of analyte concentrations using Origin software (Origin 9.5). The 4-parameter logistic equation y=A2+(A1−A2)/[1+(x/x0)^P] was used for curve fitting in the whole concentration range, where A1 is the maximum signal without analyte, A2 is the minimum signal at infinite concentration, p is the curve slope at the inflection point, and x0 is the IC50 (analyte concentration causing a 50% inhibition of the maximum response). The lower the IC50 is, the higher the sensitivity is. The limit of detection (LOD) was calculated as three standard deviations (SDs) above the background. All measurements were performed in triplicate. […]

[4] = system: anti-cortisol antibody; assay: Two-plex single molecule array assay for PGE2 and cortisol: cortisol; conditions: simultaneous detection of cortisol and PGE2
Method: as §1, §2, §3

[5] = Competitive single molecule array assay, BSA-cortisol MBs (two-step, single-plex); conditions: single-plex comparison to IL-6/cortisol multiplex
Method: A two-step assay configuration was chosen when hapten-BSA-coated beads were used. Specifically, hapten-BSA-coated capture beads were diluted in Bead Diluent (Quanterix) to a concentration of 5,000 beads/μL. Biotinylated detector antibodies were diluted in Detector Diluent (Quanterix) to the desired concentration (1 pM for anti-cortisol antibodies, and 1 nM for anti-PGE2 antibodies). SβG concentrate was diluted to 200 pM in SβG Diluent (Quanterix). Cortisol and PGE2 standards were serially diluted to desired concentrations in Sample Diluent. The reagents including beads, detector, and SβG were placed in plastic bottles (Quanterix). The samples were loaded onto a 96-well plate (Quanterix). […] Images of the arrays were analyzed and AEB (average enzyme per bead) values were calculated by the software in the SIMOA HD-1 ANALYZER™.
as §3
We applied single molecule array assay to small molecule detection by developing a bead-based competitive protocol. […] The beads labeled with detection probes were then labeled with an enzyme, SβG, via biotin-streptavidin interaction and detected by enzymatic readout on the SIMOA™ platform. […]

[6] = Conventional competitive ELISA for cortisol (BSA-cortisol coated plate); conditions: cortisol concentration causing 50% inhibition of maximum response
Method: The high-binding 96-well microtiter plate was coated with BSA-cortisol conjugate in PBS (1 μg/mL, 100 μL/well) overnight at 4° C. After washing, the plate was blocked with 1% BSA in PBS (200 μL/well) for 1 h at room temperature and subsequently washed. Next, biotinylated anti-cortisol (10 nM, 10 μL/well) in PBS and serial concentrations of cortisol standard (0, 0.001, 0.01, 0.1, 1, 10, 100 and 1,000 ng/mL,100 μL/well) prepared in Sample Diluent were added to the wells. The immunoreaction was allowed to proceed for 1 h. After washing, the plate was incubated with streptavidin-horseradish peroxidase (HRP((2 nM, 100 μL/well) for 30 min. After another washing, 3,3′,5,5′-tetramethylbenzidine (TMB) substrate (100 μL/well) was added and the plate was incubated for 15 min. Next, 50 μL of 1 mol/L hydrochloric acid was added to each well to stop the enzymatic reaction. Finally, the optical density (OD) was recorded at 450 nm on a Tecan Infinite M200 Plate Reader.
as §3

IC50 for PGE2, two-plex assay [1] | IC50 for PGE2, single-plex assay [2] | IC50 for cortisol, multiplex assay with IL-6 [3] | IC50 for cortisol, two-plex assay [4] | IC50 for cortisol, single-plex assay [5] | ELISA IC50 [6] | Structure (SMILES)
0.7 ng/mL | 0.37 ng/mL | – | – | – | – | CCCCC[C@H](O)/C=C/[C@H]1[C@H](O)CC(=O)[C@@H]1C/C=C\CCCC(=O)O [PGE2, Prostaglandin E2]
– | – | 0.57 ng/mL | 0.46 ng/mL | 0.54 ng/mL | 170.23 ng/mL | C[C@]12CCC(=O)C=C1CC[C@@H]1[C@@H]2[C@@H](O)C[C@@]2(C)[C@H]1CC[C@]2(O)C(=O)CO [cortisol]
